Source: patent publication US5677282A (Proscript, Inc., priority 1995, dated 1997)

Molecular target: stromelysin (Homo sapiens, UniProt P08254)
Experiment: Assay of stromelysin inhibition activity (fluorogenic coumarin peptide substrate)
Assay type: biochemical
Details: trypsin-activated stromelysin 2 nM, H-150 buffer pH 7.4, room temperature; read-out: Ki(app)
Experimental: Stromelysin was first activated with trypsin. This was done by preparing a reaction mixture in H-150 (H-150 consists of 10 mM CaCl2, 150 mM NaCl and 100 mM HEPES at pH 7.4) containing a final concentration of 25 μg/mL trypsin and 2.2 μM of stromelysin (Marcy et al., Biochemistry,30:6476 (1991); Koklitis et al., Biochem. J., 376:217 (1991). The reaction was incubated for 30 minutes at 37° C. and then quenched by adding trypsin inhibitor agarose to the reaction mixture at a 20 fold excess with respect to trypsin.
The reaction mixture was centrifuged at 14,000 rpm (16,000 ×g) for 30 minutes using an Eppendorf Centrifuge 5415C. The supernant, which contains activated stromelysin, was concentrated with a Centricon 10 (5000 g, 1 hour). A sample was analyzed by Bradford total protein assay and 12% SDS polyacrylamide gel electrophoresis.
All steps of the stromelysin inhibition assay were performed at room temperature. Assay solutions were prepared for each inhibitor tested. Activated stromelysin was added to a stirred covelte to a final concentration of 2 nM in 2 mL of H-150 buffer. 4 μL 5 mM coumarin peptide substrate was dissolved in DMSO and the initial rate of hydrolysis was measured for 100-200 seconds.
Substrate hydrolysis was assessed by fluorescence using a slit width of 10:10, excitation at 328 nm and emission at 393 nm. Ki was calculated based on the assumption of simple competitive inhibition and a substrate concentration much less than Km. 2 μL of 10 mM inhibitor in DMSO was added and the reduction in hydrolysis rate measured. The addition of 2 μL of inhibitor was continued until a 30-70% inhibition was observed.

Chain of stromelysin (P08254 100-477): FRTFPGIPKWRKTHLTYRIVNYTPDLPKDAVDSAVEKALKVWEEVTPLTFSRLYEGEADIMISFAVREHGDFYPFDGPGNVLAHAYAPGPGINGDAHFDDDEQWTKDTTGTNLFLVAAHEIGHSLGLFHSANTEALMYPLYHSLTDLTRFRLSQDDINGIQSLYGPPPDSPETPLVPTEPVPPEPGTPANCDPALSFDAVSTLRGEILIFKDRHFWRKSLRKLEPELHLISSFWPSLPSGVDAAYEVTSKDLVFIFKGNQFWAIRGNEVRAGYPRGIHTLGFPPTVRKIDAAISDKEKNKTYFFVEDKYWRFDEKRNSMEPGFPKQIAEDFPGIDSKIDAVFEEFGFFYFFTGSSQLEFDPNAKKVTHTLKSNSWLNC

Structure (SMILES)	Ki
CC(C)[C@H](NC(=O)[C@H](Cc1cccc2ccccc12)NC(=O)OCc1ccccc1)C(=O)Nc1n[nH]c(=S)s1	0.19 µM
CC(C)[C@H](NC(=O)[C@H](Cc1cc(I)c(O)c(I)c1)NC(=O)OCc1ccccc1)C(=O)Nc1n[nH]c(=S)s1	0.097 µM
CC(C)(C)[C@H](NC(=O)[C@H](Cc1ccc(OCc2ccccc2)cc1)NC(=O)OCc1ccccc1)C(=O)Nc1n[nH]c(=S)s1	0.089 µM
O=C(N[C@@H](Cc1ccc(OCc2ccccc2)cc1)C(=O)N[C@H](C(=O)Nc1n[nH]c(=S)s1)C1CCCCC1)OCc1ccccc1	0.071 µM
CC(C)[C@H](NC(=O)[C@@H](NC(=O)OCc1ccccc1)C1CCCCC1)C(=O)Nc1n[nH]c(=S)s1	0.18 µM
NCCCC[C@H](NC(=O)OCc1ccccc1)C(=O)N[C@@H](Cc1ccc(OCc2ccccc2)cc1)C(=O)N[C@H](C(=O)Nc1n[nH]c(=S)s1)c1ccccc1	1.89 µM
CSc1ncccc1C(=O)NC(Cc1ccccc1)C(=O)NC(C(=O)Nc1n[nH]c(=S)s1)C(C)C (centres unmarked) [5-(N-(2-methylthionicotyl)phenylalanyl-valyamino)-1,3,4-thiadiazole-2-thione]	0.917 µM
CC(C)[C@H](NC(=O)[C@H](Cc1ccccc1F)NC(=O)OCc1ccccc1)C(=O)Nc1n[nH]c(=S)s1 [5-(N-Benzyloxycarbonyl-(2-flouro)phenyl-valylamino)-1,3,4-thiadiazole-2-thione]	0.633 µM
CC[C@H](C)[C@H](NC(=O)OCc1ccccc1)C(=O)N[C@H](C(=O)Nc1n[nH]c(=S)s1)C(C)C [5-(N-Benzyloxycarbonyl-isoleucyl-valylamino)-1,3,4-thiadiazole-2-thione]	0.94 µM
CC(=O)N[C@@H](CC(C)C)C(=O)N[C@@H](CC(C)C)C(=O)Nc1n[nH]c(=S)s1 [5-(N-acetyl-leucyl-leucylamino)-1,3,4-thiadiazole-2-thione]	6.44 µM
CC(C)(NC(=O)C(Cc1ccc(OCc2ccccc2)cc1)NC(=O)OCc1ccccc1)C(=O)Nc1n[nH]c(=S)s1 (centres unmarked) [5-(N-benzyloxycarbonyl-((O-benzyl)tyrosyl)-amino-isobutyroylamino)-1,3,4-thiadiazole-2-thione]	0.237 µM
O=C(N[C@@H](Cc1ccccc1F)C(=O)Nc1n[nH]c(=S)s1)OCc1ccccc1 [5-(N-benzyloxycarbonyl-(ortho-fluoro)phenylalanylamino)-1,3,4-thiadiazole-2-thione]	0.63 µM
CC(C)C[C@H](NC(=O)OCc1ccccc1)C(=O)N[C@@H](Cc1ccc(O)cc1)C(=O)Nc1n[nH]c(=S)s1 [5-(N-benzyloxycarbonyl-leucyl-tyrosylamino-1,3,4-thiadiazole-2-thione]	1.3 µM
CC(C)C[C@H](NC(=O)OCc1ccccc1)C(=O)N[C@H](C(=O)Nc1n[nH]c(=S)s1)C(C)C [5-(N-benzyloxycarbonyl-leucyl-valylamino)-1,3,4-thiadiazole-2-thione]	0.66 µM
O=C(CNC(=O)[C@H](Cc1ccccc1)NC(=O)OCc1ccccc1)Nc1n[nH]c(=S)s1 [5-(N-benzyloxycarbonyl-phenylalanyl-glycylamino)-1,3,4-thiadiazole-2-thione]	3.95 µM
O=C(N[C@@H](Cc1ccccc1)C(=O)Nc1n[nH]c(=S)s1)OCc1ccccc1 [5-(N-benzyloxycarbonyl-phenylalanylamino)-1,3,4-thiadiazole-2-thione]	2.36 µM
CC(C)C[C@H](NC(=O)[C@@H]1CCCN1C(=O)OCc1ccccc1)C(=O)N[C@@H](C)C(=O)Nc1n[nH]c(=S)s1 [5-(N-benzyloxycarbonyl-prolyl-leucyl-alanylamino)-1,3,4-thiadiazole-2-thione]	1.74 µM
O=C(N[C@@H](Cc1c[nH]c2ccccc12)C(=O)Nc1n[nH]c(=S)s1)OCc1ccccc1 [5-(N-benzyloxycarbonyl-tryptonylamino)-1,3,4-thiadiazole-2-thione]	3.37 µM
CC(C)[C@H](NC(=O)[C@H](Cc1c[nH]c2ccccc12)NC(=O)OCc1ccccc1)C(=O)Nc1n[nH]c(=S)s1 [5-(N-benzyloxycarbonyl-tryptoyl-valylamino)-1,3,4-thiadiazole-2-thione]	0.741 µM
CC(C)(C)OC(=O)N[C@@H](CCc1ccccc1)C(=O)Nc1n[nH]c(=S)s1 [5-(N-t-butoxycarbonyl-homophenylalanylamino)-1,3,4-thiadiazole-2-thione]	11.9 µM

The remaining compounds from weak to strong by Ki, led by results:

Ki	Structure (SMILES)
0.531 µM	CC(C)[C@H](NC(=O)[C@H](Cc1ccccc1)NS(=O)(=O)c1cccc2cccnc12)C(=O)Nc1n[nH]c(=S)s1 [5-(N-(8-quinolinesulfonyl)phenylalanyl-valylamino-1,3,4-thiadiazole-2-thione]
0.509 µM	CCCC(NC(=O)OCC1c2ccccc2-c2ccccc21)C(=O)Nc1n[nH]c(=S)s1 (centres unmarked) [5-(N-(9-fluorenylmethoxycarbonyl-norvalyl)-1,3,4-thiadiazole-2-thione]
0.49 µM	CSCC[C@H](NC(=O)[C@H](CC(C)C)NC(=O)OCc1ccccc1)C(=O)Nc1n[nH]c(=S)s1 [5-(N-benzyloxycarbonyl-leucyl-methionylamino)-1,3,4-thiadiazole-2-thione]
0.341 µM	O=C(N[C@@H](Cc1c[nH]c2ccccc12)C(=O)Nc1n[nH]c(=S)s1)OCC1c2ccccc2-c2ccccc21 [5-(N-(9-fluorenylmethoxycarbonyl)tryptonylamino)-1,3,4-thiadiazole-2-thione]
0.273 µM	CC(C)[C@H](NC(=O)[C@H](Cc1ccccc1)NC(=O)OCc1ccccc1)C(=O)N[C@@H](Cc1c[nH]c2ccccc12)C(=O)Nc1n[nH]c(=S)s1 [5-(N-benzyloxycarbonyl-phenylalanyl-valyl-tryptonylamino)-1,3,4-thiadiazole-2-thione]
0.267 µM	CC(C)[C@H](NC(=O)[C@H](Cc1ccccc1)NC(=O)CCc1ccccc1)C(=O)Nc1n[nH]c(=S)s1 [5-(N-hydrocinamoyl-phenylalanyl-valylamino-1,3,4-thiadiazole-2-thione]
0.236 µM	CC(C)[C@H](NC(=O)[C@H](COCc1ccccc1)NC(=O)OCc1ccccc1)C(=O)Nc1n[nH]c(=S)s1 [5-(N-benzyloxycarbonyl-(O-benzyl)seryl-valylamino)-1,3,4-thiadiazole-2-thione]
0.221 µM	CC(C)[C@H](NC(=O)[C@H](Cc1ccc2ccccc2c1)NC(=O)OCc1ccccc1)C(=O)Nc1n[nH]c(=S)s1 [5-(N-benzyloxycarbonyl-(2-(2-naphthyl)alanyl-valylamino)-1,3,4-thiadiazole-2-thione]
0.205 µM	O=C(N[C@@H](Cc1ccc(N(Cc2ccccc2)Cc2ccccc2)cc1)C(=O)NC(C(=O)Nc1n[nH]c(=S)s1)c1ccccc1)OCc1ccccc1 (some centres unmarked) [5(N-benzyloxycarbonyl-(N',N'-dibenzylamino)phenylalanine-phepylglycylamino)-1,3,4-thiadiazole-2-thione]
0.195 µM	CSCC[C@H](NC(=O)OCC1c2ccccc2-c2ccccc21)C(=O)Nc1n[nH]c(=S)s1 [5-(N-9-fluorenylmethoxycarbonyl)methionylamino)-1,3,4-thiadiazole-2-thione]
0.184 µM	CC(C)C[C@H](NC(=O)OCC1c2ccccc2-c2ccccc21)C(=O)Nc1n[nH]c(=S)s1 [5-(N-(9-fluorenylmethoxycarbonyl)leucylamino)-1,3,4-thiadiazole-2-thione]
0.156 µM	CC(C)[C@H](NC(=O)[C@H](Cc1ccc(F)cc1)NC(=O)OCc1ccccc1)C(=O)Nc1n[nH]c(=S)s1 [5-(N-benzyloxycarbonyl(para-F)phenylalanyl-valylamino)-1,3,4-thiadiazole-2-thione]
0.148 µM	CC(C)(C)OC(=O)NCCCC[C@H](NC(=O)OCc1ccccc1)C(=O)N[C@@H](Cc1ccc(OCc2ccccc2)cc1)C(=O)NC(C(=O)Nc1n[nH]c(=S)s1)c1ccccc1 (some centres unmarked) [5-(N-benzyloxycarbonyl-lysyl(N-ε-t-butyloxycarbonyl)-tyrosyl(O-benzyl)-phenylglycylamino-1,3,4-thiadiazole-2-thione]
0.083 µM	CCCCCCCCC(=O)N[C@@H](Cc1ccccc1)C(=O)N[C@H](C(=O)Nc1n[nH]c(=S)s1)C(C)C [5-(N-nonanoyl-phenylalanyl-valylamino)-1,3,4-thiadiazole-2-thione]
0.062 µM	CC(C)C(NC(=O)C(Cc1ccc(OCc2ccc3ccccc3c2)cc1)NC(=O)OCc1ccccc1)C(=O)Nc1n[nH]c(=S)s1 (centres unmarked) [5-(N-benzyloxycarbonyl((O-methylene-2-naphthyl)tyrosyl)-valylamino)-1,3,4-thiadiazole-2-thione]
0.061 µM	CC(C)C(NC(=O)C(Cc1ccccc1)NC(=O)c1ccc(OCc2ccccc2)cc1)C(=O)Nc1n[nH]c(=S)s1 (centres unmarked) [5-(N-(4-benzyloxy)benzoyl-phenylalanyl-valylamino)-1,3,4-thiadiazole-2-thione]
0.05 µM	O=C(CC[C@H](NC(=O)OCc1ccccc1)C(=O)NC(C(=O)Nc1n[nH]c(=S)s1)c1ccccc1)NC(c1ccccc1)(c1ccccc1)c1ccccc1 (some centres unmarked) [5-(N-benzyloxycarbonyl-((γ-N-trityl)glutamyl)-phenylglycylamino)-1,3,4-thiadiazole-2-thione]
0.019 µM	O=C(NC(CCC(=O)N(Cc1ccccc1)Cc1ccccc1)C(=O)NC(C(=O)Nc1n[nH]c(=S)s1)c1ccccc1)OCc1ccccc1 (centres unmarked) [5-(N-benzyloxycarbonyl-(γ-N,N-dibenzyl)glutamyl-phenylglycylamino)-1,3,4-thiadiazole2-thione]
